In patent US9902736B2, “1-oxo/acylation-14-acylated oridonin derivative, preparation method therefor and application thereof” (HANGZHOU BENSHENG PHARMACEUTICAL CO., LTD., priority 2012, dated 2018):
≈ marks a conversion by molar mass, not a printed value. Values belong to the molecule of their own block, whether it stands above or below them.

Legend:
K562/ADR = experiment: Leukemia cell growth inhibition, MTT, 72 h; type: cell-based; conditions: Homo sapiens
Summary of the method: (§1)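 MTT read-out of viable cell concentration after 72 hours of exposure at 37° C under 5% CO2. Compounds were dosed at several concentrations one day after plating 6000 cells per well.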

Kasumi-1 = experiment: Leukemia cell growth inhibition, MTT, 72 h; type: cell-based; conditions: Homo sapiens
Summary of the method: as §1

H9 = experiment: Leukemia cell growth inhibition, MTT, 72 h; type: cell-based, human; conditions: for IC50 / IC90: Homo sapiens, H9, 72 h, MTT
Summary of the method: as §1

Jurkat = experiment: Leukemia cell growth inhibition, MTT, 72 h; type: cell-based, human; conditions: Homo sapiens, Jurkat; 72 h, MTT
Summary of the method: as §1

NB4 = experiment: Leukemia cell growth inhibition, MTT, 72 h; type: cell-based, human; conditions: for IC50 / IC90: Homo sapiens, NB-4, 72 h, MTT
Summary of the method: as §1

RPMI 8226 = experiment: Multiple myeloma cell growth inhibition, MTT, 72 h; type: cell-based; conditions: Homo sapiens
Summary of the method: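 Growth inhibition by MTT after 72 h drug exposure (37 °C, 5% CO2) over a concentration range of oridonin derivatives. RPMI 8226 cells plated at 6000 per well and dosed the following day.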

CNE = experiment: Solid tumor cell growth inhibition, MTT, 72 h; type: cell-based, human; conditions: Homo sapiens, CNE; 72 h, MTT
Summary of the method: (§2)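 Viable cell concentration served as the readout. Cells (6000 per well) grown in DMEM High Glucose containing 10% FBS received the derivatives at several concentrations following an initial day of culture at 37° C, 5% CO2.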

Hela = experiment: Solid tumor cell growth inhibition, MTT, 72 h; type: cell-based, human; conditions: Homo sapiens, HeLa; 72 h, MTT
Summary of the method: as §2

Hep-2 = experiment: Solid tumor cell growth inhibition, MTT, 72 h; type: cell-based, human; conditions: Homo sapiens, HEp-2; 72 h, MTT
Summary of the method: as §2

MGC-803 = experiment: Solid tumor cell growth inhibition, MTT, 72 h; type: cell-based, human; conditions: Homo sapiens, MGC-803; 72 h, MTT
Summary of the method: as §2

A549 = experiment: Solid tumor cell growth inhibition, MTT, 72 h; type: cell-based; conditions: Homo sapiens
Summary of the method: as §2

Becap-37 = experiment: Solid tumor cell growth inhibition, MTT, 72 h; type: cell-based; conditions: Homo sapiens
Summary of the method: as §2

CaEs-17 = experiment: Solid tumor cell growth inhibition, MTT, 72 h; type: cell-based; conditions: Homo sapiens, CaEs17
Summary of the method: as §2

Hep G2 = experiment: Solid tumor cell growth inhibition, MTT, 72 h; type: cell-based; conditions: Homo sapiens, HepG2
Summary of the method: as §2

MG-63 = experiment: Solid tumor cell growth inhibition, MTT, 72 h; type: cell-based; conditions: Homo sapiens
Summary of the method: as §2

PANC-1 = experiment: Solid tumor cell growth inhibition, MTT, 72 h; type: cell-based; conditions: Homo sapiens
Summary of the method: as §2

PC-3 = experiment: Solid tumor cell growth inhibition, MTT, 72 h; type: cell-based; conditions: Homo sapiens
Summary of the method: as §2

RKO = experiment: Solid tumor cell growth inhibition, MTT, 72 h; type: cell-based; conditions: Homo sapiens
Summary of the method: as §2

SK-OV-3 = experiment: Solid tumor cell growth inhibition, MTT, 72 h; type: cell-based; conditions: Homo sapiens, SK-OV-3, 72 h, MTT; for IC50: read-out: IC50 SK-OV-3; for IC90: read-out: IC90 SK-OV-3
Summary of the method: as §2

U87-MG = experiment: Solid tumor cell growth inhibition, MTT, 72 h; type: cell-based; conditions: Homo sapiens, U-87 MG
Summary of the method: as §2

IC50 (K562/ADR): 0.37 µg/mL (≈ 0.679 µM)
IC90 (K562/ADR): 1.57 µg/mL (≈ 2.88 µM)
IC50 (Kasumi-1): 0.41 µg/mL (≈ 0.752 µM)
IC90 (Kasumi-1): 1.31 µg/mL (≈ 2.4 µM)
IC50 (H9): 0.06 µg/mL (≈ 0.11 µM)
IC90 (H9): 0.33 µg/mL (≈ 0.605 µM)
IC50 (Jurkat): 0.44 µg/mL (≈ 0.807 µM)
IC90 (Jurkat): 3.03 µg/mL (≈ 5.56 µM)
IC50 (NB4): 0.05 µg/mL (≈ 0.0917 µM)
IC90 (NB4): 0.47 µg/mL (≈ 0.862 µM)
IC50 (RPMI 8226): 0.2 µg/mL (≈ 0.367 µM)
IC90 (RPMI 8226): 1.55 µg/mL (≈ 2.84 µM)
IC50 (CNE): 1.31 µg/mL (≈ 2.4 µM)
IC90 (CNE): 5.02 µg/mL (≈ 9.21 µM)
IC50 (Hela): 1.02 µg/mL (≈ 1.87 µM)
IC90 (Hela): 3.45 µg/mL (≈ 6.33 µM)
IC50 (Hep-2): 1.42 µg/mL (≈ 2.61 µM)
IC90 (Hep-2): 6.91 µg/mL (≈ 12.7 µM)
IC50 (MGC-803): 0.79 µg/mL (≈ 1.45 µM)
IC90 (MGC-803): 6.73 µg/mL (≈ 12.3 µM)
IC50 (A549): 1.78 µg/mL (≈ 3.27 µM)
IC90 (A549): 6.68 µg/mL (≈ 12.3 µM)
IC50 (Becap-37): 1.1 µg/mL (≈ 2.02 µM)
IC90 (Becap-37): 1.99 µg/mL (≈ 3.65 µM)
IC50 (CaEs-17): 0.86 µg/mL (≈ 1.58 µM)
IC90 (CaEs-17): 5.21 µg/mL (≈ 9.56 µM)
IC50 (Hep G2): 0.96 µg/mL (≈ 1.76 µM)
IC90 (Hep G2): 7.13 µg/mL (≈ 13.1 µM)
IC50 (MG-63): 0.45 µg/mL (≈ 0.826 µM)
IC90 (MG-63): 2.31 µg/mL (≈ 4.24 µM)
IC50 (PANC-1): 1.69 µg/mL (≈ 3.1 µM)
IC90 (PANC-1): 9.36 µg/mL (≈ 17.2 µM)
IC50 (PC-3): 1.6 µg/mL (≈ 2.94 µM)
IC90 (PC-3): 5.12 µg/mL (≈ 9.39 µM)
IC50 (RKO): 0.41 µg/mL (≈ 0.752 µM)
IC90 (RKO): 0.92 µg/mL (≈ 1.69 µM)
IC50 (SK-OV-3): 1.6 µg/mL (≈ 2.94 µM)
IC90 (SK-OV-3): 5.12 µg/mL (≈ 9.39 µM)
IC50 (U87-MG): 0.56 µg/mL (≈ 1.03 µM)
IC90 (U87-MG): 1.89 µg/mL (≈ 3.47 µM)
Structure (SMILES): C=C1C(=O)[C@]23[C@H](OC(=O)c4ccc(Cl)cc4)[C@H]1CC[C@H]2[C@@]12CO[C@@]3(O)[C@@H](O)[C@@H]1C(C)(C)CC[C@@H]2OC(C)=O [BS-OR-093]
anti-H9 cell line activity increased (H9; as compared with oridonin): 22 fold
anti-NB4 cell line activity increased (NB4; as compared with oridonin): 15 fold

IC50 (K562/ADR): 0.7 µg/mL (≈ 1.3 µM)
IC90 (K562/ADR): 2.17 µg/mL (≈ 4.04 µM)
IC50 (Kasumi-1): 0.72 µg/mL (≈ 1.34 µM)
IC90 (Kasumi-1): 1.72 µg/mL (≈ 3.21 µM)
IC50 (H9): 0.19 µg/mL (≈ 0.354 µM)
IC90 (H9): 0.49 µg/mL (≈ 0.913 µM)
IC50 (Jurkat): 0.65 µg/mL (≈ 1.21 µM)
IC90 (Jurkat): 2.68 µg/mL (≈ 4.99 µM)
IC50 (NB4): 0.1 µg/mL (≈ 0.186 µM)
IC90 (NB4): 0.49 µg/mL (≈ 0.913 µM)
IC50 (RPMI 8226): 0.49 µg/mL (≈ 0.913 µM)
IC90 (RPMI 8226): 1.75 µg/mL (≈ 3.26 µM)
IC50 (CNE): 1.32 µg/mL (≈ 2.46 µM)
IC90 (CNE): 5.04 µg/mL (≈ 9.39 µM)
IC50 (Hela): 1.54 µg/mL (≈ 2.87 µM)
IC90 (Hela): 4.45 µg/mL (≈ 8.29 µM)
IC50 (Hep-2): 1.68 µg/mL (≈ 3.13 µM)
IC90 (Hep-2): 7.46 µg/mL (≈ 13.9 µM)
IC50 (MGC-803): 1.39 µg/mL (≈ 2.59 µM)
IC90 (MGC-803): 12.1 µg/mL (≈ 22.5 µM)
IC50 (A549): 2.87 µg/mL (≈ 5.35 µM)
IC90 (A549): 9.95 µg/mL (≈ 18.5 µM)
IC50 (Becap-37): 1.15 µg/mL (≈ 2.14 µM)
IC90 (Becap-37): 3.31 µg/mL (≈ 6.17 µM)
IC50 (CaEs-17): 0.94 µg/mL (≈ 1.75 µM)
IC90 (CaEs-17): 6.26 µg/mL (≈ 11.7 µM)
IC50 (Hep G2): 1.42 µg/mL (≈ 2.65 µM)
IC90 (Hep G2): 7.47 µg/mL (≈ 13.9 µM)
IC50 (MG-63): 0.47 µg/mL (≈ 0.876 µM)
IC90 (MG-63): 1 µg/mL (≈ 1.86 µM)
IC50 (PANC-1): 1.82 µg/mL (≈ 3.39 µM)
IC90 (PANC-1): 9.91 µg/mL (≈ 18.5 µM)
IC50 (PC-3): 1.66 µg/mL (≈ 3.09 µM)
IC90 (PC-3): 4.52 µg/mL (≈ 8.42 µM)
IC50 (RKO): 0.38 µg/mL (≈ 0.708 µM)
IC90 (RKO): 0.75 µg/mL (≈ 1.4 µM)
IC50 (SK-OV-3): 1.66 µg/mL (≈ 3.09 µM)
IC90 (SK-OV-3): 4.52 µg/mL (≈ 8.42 µM)
IC50 (U87-MG): 0.6 µg/mL (≈ 1.12 µM)
IC90 (U87-MG): 1.86 µg/mL (≈ 3.47 µM)
Structure (SMILES): C=C1C(=O)[C@]23[C@H](OC(=O)/C=C/c4ccccc4)[C@H]1CC[C@H]2[C@@]12CO[C@@]3(O)[C@@H](O)[C@@H]1C(C)(C)CC[C@@H]2OC(C)=O [BS-OR-094]

IC50 (K562/ADR): 1.32 µg/mL (≈ 3.62 µM)
IC90 (K562/ADR): 3.46 µg/mL (≈ 9.49 µM)
IC50 (Kasumi-1): 1.32 µg/mL (≈ 3.62 µM)
IC90 (Kasumi-1): 3.72 µg/mL (≈ 10.2 µM)
IC50 (H9): 1.36 µg/mL (≈ 3.73 µM)
IC90 (H9): 3.57 µg/mL (≈ 9.8 µM)
IC50 (Jurkat): 1.89 µg/mL (≈ 5.19 µM)
IC90 (Jurkat): 3.95 µg/mL (≈ 10.8 µM)
IC50 (NB4): 0.78 µg/mL (≈ 2.14 µM)
IC90 (NB4): 2.4 µg/mL (≈ 6.59 µM)
IC50 (RPMI 8226): 2.73 µg/mL (≈ 7.49 µM)
IC90 (RPMI 8226): 5.68 µg/mL (≈ 15.6 µM)
IC50 (CNE): 5.45 µg/mL (≈ 15 µM)
IC90 (CNE): 10.5 µg/mL (≈ 28.9 µM)
IC50 (Hela): 5.22 µg/mL (≈ 14.3 µM)
IC90 (Hela): 10.7 µg/mL (≈ 29.4 µM)
IC50 (Hep-2): 4.66 µg/mL (≈ 12.8 µM)
IC90 (Hep-2): 7.99 µg/mL (≈ 21.9 µM)
IC50 (MGC-803): 5.88 µg/mL (≈ 16.1 µM)
IC90 (MGC-803): 7.95 µg/mL (≈ 21.8 µM)
IC50 (A549): 13.7 µg/mL (≈ 37.6 µM)
IC90 (A549): > 16 µg/mL
IC50 (Becap-37): 5.06 µg/mL (≈ 13.9 µM)
IC90 (Becap-37): 12.9 µg/mL (≈ 35.5 µM)
IC50 (CaEs-17): 3.31 µg/mL (≈ 9.08 µM)
IC90 (CaEs-17): 6.86 µg/mL (≈ 18.8 µM)
IC50 (Hep G2): 6.77 µg/mL (≈ 18.6 µM)
IC90 (Hep G2): 13.1 µg/mL (≈ 36 µM)
IC50 (MG-63): 1.86 µg/mL (≈ 5.1 µM)
IC90 (MG-63): 5.6 µg/mL (≈ 15.4 µM)
IC50 (PANC-1): 9.1 µg/mL (≈ 25 µM)
IC90 (PANC-1): 16 µg/mL (≈ 43.9 µM)
IC50 (PC-3): 7.94 µg/mL (≈ 21.8 µM)
IC90 (PC-3): 13 µg/mL (≈ 35.6 µM)
IC50 (RKO): 2.24 µg/mL (≈ 6.15 µM)
IC90 (RKO): 3.96 µg/mL (≈ 10.9 µM)
IC50 (SK-OV-3): 7.94 µg/mL (≈ 21.8 µM)
IC90 (SK-OV-3): 13 µg/mL (≈ 35.6 µM)
IC50 (U87-MG): 2.58 µg/mL (≈ 7.08 µM)
IC90 (U87-MG): 6.67 µg/mL (≈ 18.3 µM)
Structure (SMILES): C=C1C(=O)[C@]23[C@H](O)[C@H]1CC[C@H]2[C@@]12CO[C@]3(O)[C@@H](O)[C@@H]1C(C)(C)CC[C@@H]2O [OR, Oridonin]
